According to patent US7166452B2, “Aminoketone asymmetric reductase and nucleic acid thereof” (priority 2001, dated 2007):

Legend:
[1] = tested on: aminoketone asymmetric reductase; type: biochemical, Rhodococcus erythropolis; details: inhibitor at a concentration of 1 mM; purified enzyme
Procedure: (§1) While 10 μl of 1 M Tris-hydrochloric acid buffer solution (pH 8.0), 25 μl of 16 mM NADP^+, and 215 μl of the purified enzyme solution were held at 43° C., 1 μl of 1-amino-2-hydroxypropane was added thereto, whereby aminoacetone was produced. The increase or decrease in NADPH accompanying the reaction was measured by the change in absorbance at 340 nm. In the measurement of enzyme activity, the enzyme activity by which 1 μmol of 1-amino-2-hydroxypropane was oxidized per 1 min under the following condition was defined as 1 unit (U).

[2] = tested on: Aspergillus awamori IFO-4033; type: cell-based
[3] = tested on: Rhodococcus erythropolis MAK-34; type: cell-based
[4] = tested on: Hypocrea gelatinosa IFO-9165; assay: Influence of inducer addition on d-pseudoephedrine production (Example 6); type: cell-based; details: cells cultured with inducer 5 g/L, medium 4
[5] = tested on: Mycobacterium chlorophenolicum IFO-15527; type: cell-based
[6] = tested on: aminoketone asymmetric reductase; assay: Substrate specificity and enzyme activity of purified enzyme (NADPH absorbance at 340 nm); type: biochemical, Rhodococcus erythropolis; details: for enzyme acts on the compound (substrate specificity): purified enzyme
Procedure: as §1, with “(U). As a result, the whole activity was 126 mU, the specific activity was 432 mU/mg, and the activity yield was 0.22%.” for “(U).”
It was similarly confirmed that the enzyme acted on 1-2-methylaminopropiophenone, 1-2-dimethylaminopropiophenone, and 1-amino-2-butanone.

[7] = tested on: Mycobacterium smegmatis IAM-12065; type: cell-based
[8] = tested on: Helicostylum nigricans IFO-8091; type: cell-based
[9] = tested on: Penicillium cyaneum IFO-5337; assay: Influence of inducer addition on d-pseudoephedrine production (Example 6); type: cell-based; details: cells cultured with inducer 5 g/L, medium 4
[10] = tested on: Tritirachium oryzae IFO-7544; type: cell-based
[11] = tested on: Aspergillus candidus IFO-5468; type: cell-based
[12] = tested on: Absidia lichtheimi IFO-4409; type: cell-based
[13] = tested on: Klebsiella pneumoniae IFO-3319; type: cell-based
[14] = tested on: Armillariella mellea IFO-31616; assay: Influence of inducer addition on d-pseudoephedrine production (Example 6); type: cell-based; details: cells cultured with inducer 5 g/L, medium 4
[15] = tested on: Nocardioides simplex IFO-12069; type: cell-based
[16] = tested on: Rhodococcus erythropolis MAK-34 strain; type: cell-based
[17] = tested on: aminoketone asymmetric reductase; assay: Optimum pH and optimum temperature of purified enzyme; type: biochemical, Rhodococcus erythropolis; details: 1-amino-2-propanol, NADP+
Procedure: Ten microliters of the purified enzyme solution, 420 μL of water, 20 μL of 1 M Tris-hydrochloric acid buffer solution, and 50 μL of 16 mM aqueous NADP^+ solution was mixed, and incubated at 45° C., and 2 μL of 1-amino-2-propanol were added thereto, so as to react therewith. Using a spectrophotometer, the activity was calculated from the change in absorbance at 340 nm with time (FIG. 2). As a result, the optimum pH was about 8.1.
Ten microliters of the purified enzyme solution, 420 μL of water, 20 μL of 0.1 M PIPES buffer solution (pH 7.5), and 50 μL of 16 mM aqueous NADP^+ solution was mixed, and incubated at various temperatures, and 2 μL of 1-amion-2-propanol were added thereto, so as to react therewith. Using a spectrophotometer, the activity was calculated from the change in absorbance at 340 nm with time (FIG. 3). As a result, the optimum temperature was 55° C.

Which “enzyme activity inhibited by inhibitor” value [1] does the source give for O=C(O)CN(CCN(CC(=O)O)CC(=O)O)CC(=O)O [EDTA] here?
The value was “inhibited”.

Which “AMOUNT OF PRODUCTION (ADDED)” value [2] does the source give for CC(O)CN (centres unmarked) [1-amino-2-hydroxypropane] here?
Its value is 1.170 mg.

And the “AMOUNT OF PRODUCTION (ADDED)” value [3]?
Its value is 1.260 mg.

What about the “AMOUNT OF PRODUCTION (ADDED)” value [4] of the same molecule?
Its value is 0.640 mg.

What about the “AMOUNT OF PRODUCTION (ADDED)” value [5] of the same molecule?
Its value is 0.770 mg.

What about the “enzyme acts on the compound (substrate specificity)” value (“enzyme acts on the compound” for short) [6] of the same molecule?
The value was “acts on”.

What about the “AMOUNT OF PRODUCTION (ADDED)” value [7] of the same molecule?
Its value is 0.210 mg.

And the “AMOUNT OF PRODUCTION (ADDED)” value [8]?
The value was 0.520 mg.

And the “AMOUNT OF PRODUCTION (ADDED)” value [9]?
Its value is 1.260 mg.

What about the “AMOUNT OF PRODUCTION (ADDED)” value [10] of the same molecule?
Its value is 0.078 mg.

What about the “AMOUNT OF PRODUCTION (ADDED)” value [11] of the same molecule?
The value was 0.018 mg.

What about the “AMOUNT OF PRODUCTION (ADDED)” value [12] of the same molecule?
The value was 0.220 mg.

And the “AMOUNT OF PRODUCTION (ADDED)” value [13]?
The value was 0.066 mg.

And the “AMOUNT OF PRODUCTION (ADDED)” value [14]?
The value was 0.460 mg.

And the “AMOUNT OF PRODUCTION (ADDED)” value [15]?
The value was 0.190 mg.

Which “enzyme activity inhibited by inhibitor” value [1] does the source give for c1cnc2c(c1)ccc1cccnc12 [o-phenanthroline] here?
Its value is “inhibited”.

With CC(=O)CN [1-amino-2-oxopropane] as the molecule, how does the “enzyme acts on the compound” value [6] read?
The value was “reduction activity”.

And the “AMOUNT OF PRODUCTION” value [16]?
The value was 1.97 mg.

How did the “AMOUNT OF PRODUCTION (ADDED)” value [3] turn out when CCC(O)CN (centres unmarked) [1-amino-2-hydroxybutane] was run?
The value was 0.65 mg.

And the “AMOUNT OF PRODUCTION (ADDED)” value [7]?
The value was 0.17 mg.

How did the “enzyme acts on the compound” value [6] turn out when CCC(=O)CN [1-amino-2-butanone] was run?
The value was “acted on”.

Which “enzyme acts on the compound” value [6] does the source give for CC(C(=O)c1ccccc1)N(C)C (centres unmarked) [1-2-dimethylaminopropiophenone] here?
Its value is “acted on”.

For c1ccc(-c2ccccn2)nc1 [α,α′-dipyridyl], which “enzyme activity inhibited by inhibitor” value [1] is on record?
The value was “inhibited”.

Which “enzyme acts on the compound” value [6] does the source give for CNC(C)C(=O)c1ccccc1 (centres unmarked) [1-2-methylaminopropiophenone] here?
The value was “acted on”.

Which results are given for NC1CCCCC1O (centres unmarked) [1-amino-2-hydroxycyclohexane]?
AMOUNT OF PRODUCTION (ADDED) [3]: 0.23 mg; AMOUNT OF PRODUCTION (ADDED) [7]: 0.13 mg

B1: aminoketone asymmetric reductase: enzyme purified from Rhodococcus erythropolis MAK-34; SEQ ID NO:1; tetramer of about 28,500 subunits; coenzyme NADP (protein, listed as Rhodococcus erythropolis)
chain: MFNSIEGRSVVVTGGSKGIGLGMVRVFARAGANVLMTARDALTLERAAEGLNGLPGAVSTLQVDVTNPDSLAGMAEVAAERHGGIDVLCANAGIFPSKRLGEMTSEDMDSVFGVNVKGTIHAVQACMPWLETSGRGRVVVTSSITGPVTGYPGWSHYGASKAAQMGFIRTAAIELAPKRITINAVLPGNVITEGLDGLGQEYLDQMASSVPAGSLGSVEDIANAALFFALDEAAYITGQSLIVDGGQVLPESAMALGEL
modifications: tetramer
notes: enzyme purified from Rhodococcus erythropolis MAK-34; tetramer of about 28,500 subunits; coenzyme NADP
What does the source list for B1?
specific activity ([6]; oxidation of 1-amino-2-hydroxypropane, NADP+, pH 8.0, 43° C., 1 U = 1 μmol per 1 min): 432 mU/mg; optimum temperature ([17]; PIPES buffer pH 7.5): 55 °C; optimum pH ([17]; Tris-hydrochloric acid buffer, 45° C.): about 8.1
